Tested on: NF-kB activity in K562 cells
Assay: NF-kB.Luc reporter assay in K562 cells
Assay type: cell-based
Conditions: 5 h, 10S-E2 1 µM
Experimental: We analyzed GR TR function using an NF-kB.Luc reporter assay with the irritating inflammatory agent phorbol 13-acetate 12-myristate (TPA) as an inducer of NF-kB signaling and positive control.
Figure 4 Effects of synephrine derivatives on GR transrepression in Granta lymphoma and K562 leukemia cells. (A) K562 and Granta cells stably infected with the lentiviruses bearing the NF-kB luciferase reporter. Cells were incubated for 5 h with the solvent (control), TPA (5 ng/mL), 4S-C2 (10 µM), 8S-E3 (10 µM), 10S-E2 (1 µM), or 13S-G2 (1 µM). Luciferase activity was determined as described in the Materials and Methods section. (B) IL1-α and IL6 mRNA expression in K562 and Granta cells. […] The mean ± SD was calculated for three individual samples/condition (n = 3). […]
Lentiviral stocks were generated using the lentiviral expression vector NF-kB. […] The infection efficiency exceeded 90% (tracked by GFP fluorescence).
Cells (10^4 cells/well in a 24-well plate), stably expressing Firefly Luciferase under the NF-kB promoter, were treated for 5 h with TPA (12-O-tetradecanoylphorbol-13-acetate, Boston, MA, USA, 10 ng/mL), 4S-C2 (10 µM), 8S-E3 (10 µM), 10S-E2 (1 µM), 13S-G2 (1 µM), or the vehicle. Luciferase activity was measured as described using a commercial Luciferase Assay (“Promega”, Madison, WI, USA) and Luminometer TD 20/20 (“Turner Design Instruments”, San Jose, CA, USA). […]

CCCCCCNCC(O)c1ccc(OCc2ccccc2)cc1 (stereo not drawn) [10S-E2, 1-[4-(benzyloxy)phenyl]-2-(hexylamino)ethanol] was tested, and the “inhibition of luciferase activity (NF-kB)” value was 60%.
